Measured values reported in ChEMBL document CHEMBL1909046, “DrugMatrix in vitro pharmacology data”.
pIC50, pKi: −log10 of the molar value.

What was measured:
Carbonic anhydrase 2 = Carbonic anhydrase 2 (Homo sapiens, UniProt P00918); experiment: DRUGMATRIX: Carbonic Anhydrase II enzyme inhibition (substrate: 4-Nitrophenyl acetate (4-NPA)); format: tissue-based, Erythrocyte; settings: erythrocyte; Not Active = under 50% inhibition at 10 µM
[1] = target: T1, Nitric oxide synthase, inducible (Mus musculus, UniProt P29477); design: species or system Escherichia coli;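 note: inhibition of iNOS enzyme activity measured with L-arginine as substrate; in other assays of this panel Not Active means under 50% inhibition at 10 µM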
T1 sequence (P29477 whole entry): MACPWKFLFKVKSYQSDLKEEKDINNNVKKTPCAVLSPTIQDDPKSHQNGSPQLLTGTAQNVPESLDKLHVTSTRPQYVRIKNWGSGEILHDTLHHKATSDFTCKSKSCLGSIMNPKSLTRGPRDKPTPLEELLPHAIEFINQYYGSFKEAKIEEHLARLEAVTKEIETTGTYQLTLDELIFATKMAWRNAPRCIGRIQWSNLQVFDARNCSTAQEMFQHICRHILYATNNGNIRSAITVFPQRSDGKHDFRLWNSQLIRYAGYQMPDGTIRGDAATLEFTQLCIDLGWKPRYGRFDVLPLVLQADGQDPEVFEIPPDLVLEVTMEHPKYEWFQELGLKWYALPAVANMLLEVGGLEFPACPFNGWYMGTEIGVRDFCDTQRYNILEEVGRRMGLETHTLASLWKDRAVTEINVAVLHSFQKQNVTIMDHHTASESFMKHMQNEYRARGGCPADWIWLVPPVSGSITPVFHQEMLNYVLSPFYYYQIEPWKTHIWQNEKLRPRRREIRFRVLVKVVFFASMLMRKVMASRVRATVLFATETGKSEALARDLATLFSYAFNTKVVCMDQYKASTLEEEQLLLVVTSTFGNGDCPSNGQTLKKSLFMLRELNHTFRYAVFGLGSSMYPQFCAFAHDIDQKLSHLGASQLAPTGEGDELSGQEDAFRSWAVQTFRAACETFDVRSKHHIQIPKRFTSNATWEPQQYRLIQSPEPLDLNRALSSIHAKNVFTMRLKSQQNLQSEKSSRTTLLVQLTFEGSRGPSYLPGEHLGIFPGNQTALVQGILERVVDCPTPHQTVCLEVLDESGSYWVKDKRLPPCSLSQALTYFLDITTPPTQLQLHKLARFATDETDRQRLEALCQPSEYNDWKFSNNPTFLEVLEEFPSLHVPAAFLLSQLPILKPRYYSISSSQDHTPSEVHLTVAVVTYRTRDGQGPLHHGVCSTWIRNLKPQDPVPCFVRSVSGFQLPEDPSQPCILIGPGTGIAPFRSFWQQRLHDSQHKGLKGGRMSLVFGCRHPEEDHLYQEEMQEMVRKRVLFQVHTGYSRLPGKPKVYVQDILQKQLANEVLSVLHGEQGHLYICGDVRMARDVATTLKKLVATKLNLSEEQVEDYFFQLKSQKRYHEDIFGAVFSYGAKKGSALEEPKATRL

Cathepsin G = target: T2, Cathepsin G (Homo sapiens, UniProt P08311); format: tissue-based; settings: neutrophil;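 note: inhibition of Cathepsin G enzyme activity, tested on an AMC-conjugated peptide substrate; in other assays of this panel Not Active means under 50% inhibition at 10 µM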
T2 sequence (P08311 whole entry): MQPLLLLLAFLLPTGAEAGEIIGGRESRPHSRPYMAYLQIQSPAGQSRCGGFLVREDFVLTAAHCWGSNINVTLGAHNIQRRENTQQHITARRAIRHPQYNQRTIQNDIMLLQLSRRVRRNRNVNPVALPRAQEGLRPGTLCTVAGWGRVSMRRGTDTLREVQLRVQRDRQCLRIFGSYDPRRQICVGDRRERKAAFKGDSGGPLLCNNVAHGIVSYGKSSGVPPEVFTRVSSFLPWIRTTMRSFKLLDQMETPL

[2] = target: Sodium-dependent dopamine transporter (Homo sapiens, UniProt Q01959); experiment: DRUGMATRIX: Dopamine Transporter radioligand binding (ligand: [125I] RTI-55); format: cell membranes, CHO-K1, Membrane; settings: Not Active = under 50% inhibition at 10 µM; for IC50: cho-k1
Chain of Sodium-dependent dopamine transporter (Q01959 whole entry): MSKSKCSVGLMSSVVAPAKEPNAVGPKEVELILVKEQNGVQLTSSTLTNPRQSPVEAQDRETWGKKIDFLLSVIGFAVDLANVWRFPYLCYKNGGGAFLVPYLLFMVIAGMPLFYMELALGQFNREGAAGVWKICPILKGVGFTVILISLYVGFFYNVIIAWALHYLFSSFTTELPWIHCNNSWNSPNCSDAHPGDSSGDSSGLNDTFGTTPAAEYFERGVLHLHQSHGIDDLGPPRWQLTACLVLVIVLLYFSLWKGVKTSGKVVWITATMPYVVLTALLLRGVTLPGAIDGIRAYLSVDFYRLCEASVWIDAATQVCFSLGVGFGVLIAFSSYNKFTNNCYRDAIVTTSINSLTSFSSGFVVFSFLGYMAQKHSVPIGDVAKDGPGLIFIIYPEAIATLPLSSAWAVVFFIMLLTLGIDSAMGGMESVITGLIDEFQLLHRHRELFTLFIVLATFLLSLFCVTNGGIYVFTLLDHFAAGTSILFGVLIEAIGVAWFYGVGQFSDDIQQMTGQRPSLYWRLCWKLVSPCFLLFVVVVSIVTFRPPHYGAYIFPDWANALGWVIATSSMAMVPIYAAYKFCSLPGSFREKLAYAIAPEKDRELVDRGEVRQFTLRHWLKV

Cannabinoid receptor 1 = Cannabinoid receptor 1 (Homo sapiens, UniProt P21554); format: cell membranes, Membrane; settings: chem-1; note: in other assays of this panel Not Active means under 50% inhibition at 10 µM
Chain of Cannabinoid receptor 1 (P21554 whole entry): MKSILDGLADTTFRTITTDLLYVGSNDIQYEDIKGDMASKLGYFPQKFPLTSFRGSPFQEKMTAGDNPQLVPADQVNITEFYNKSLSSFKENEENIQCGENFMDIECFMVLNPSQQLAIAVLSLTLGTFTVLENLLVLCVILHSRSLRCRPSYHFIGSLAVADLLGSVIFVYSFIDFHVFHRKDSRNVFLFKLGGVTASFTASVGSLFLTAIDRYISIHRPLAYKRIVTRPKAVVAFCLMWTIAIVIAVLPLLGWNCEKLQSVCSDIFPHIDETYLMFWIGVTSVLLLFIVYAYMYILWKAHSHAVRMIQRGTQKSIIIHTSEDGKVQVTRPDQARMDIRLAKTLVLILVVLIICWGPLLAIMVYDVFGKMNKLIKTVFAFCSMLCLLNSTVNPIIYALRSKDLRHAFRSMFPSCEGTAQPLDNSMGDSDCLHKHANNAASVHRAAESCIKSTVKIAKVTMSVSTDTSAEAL

Melanocortin receptor 5 = Melanocortin receptor 5 (Homo sapiens, UniProt P33032); format: cell membranes, HEK293, Membrane; settings: hek293; note: in other assays of this panel Not Active means under 50% inhibition at 10 µM
Chain of Melanocortin receptor 5 (P33032 whole entry): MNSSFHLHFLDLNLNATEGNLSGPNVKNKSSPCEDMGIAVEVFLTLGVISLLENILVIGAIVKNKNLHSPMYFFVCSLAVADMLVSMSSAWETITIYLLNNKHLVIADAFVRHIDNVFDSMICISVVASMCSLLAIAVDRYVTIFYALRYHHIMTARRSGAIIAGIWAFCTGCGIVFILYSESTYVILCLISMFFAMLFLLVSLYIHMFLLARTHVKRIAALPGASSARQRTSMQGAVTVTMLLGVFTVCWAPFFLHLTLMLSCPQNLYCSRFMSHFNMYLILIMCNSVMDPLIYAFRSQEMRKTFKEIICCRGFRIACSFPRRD

[3] = DRUGMATRIX: Sigma2 radioligand binding (ligand: [3H] Ifenprodil); format: cell membranes, Rattus norvegicus, Wistar, Brain, Membrane; settings: Not Active = under 50% inhibition at 10 µM
B2 bradykinin receptor = target: T3, B2 bradykinin receptor (Homo sapiens, UniProt P30411); format: cell membranes, Membrane; settings: chem-1; note: in other assays of this panel Not Active means under 50% inhibition at 10 µM
T3 sequence (P30411 whole entry): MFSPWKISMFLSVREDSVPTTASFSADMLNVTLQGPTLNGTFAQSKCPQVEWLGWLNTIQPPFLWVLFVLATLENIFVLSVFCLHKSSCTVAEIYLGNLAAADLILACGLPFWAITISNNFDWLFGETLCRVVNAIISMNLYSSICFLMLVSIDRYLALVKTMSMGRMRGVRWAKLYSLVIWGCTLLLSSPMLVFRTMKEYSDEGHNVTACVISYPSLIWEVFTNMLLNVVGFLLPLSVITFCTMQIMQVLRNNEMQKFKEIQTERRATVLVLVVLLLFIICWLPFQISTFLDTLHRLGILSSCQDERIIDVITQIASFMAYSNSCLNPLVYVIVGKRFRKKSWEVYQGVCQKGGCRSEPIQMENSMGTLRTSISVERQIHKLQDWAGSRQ

[4] = DRUGMATRIX: Tumor Necrosis Factor (TNF), Non-Selective radioligand binding (ligand: [125I] TNF-alpha); format: cell membranes, Membrane; settings: u-937; Not Active = under 50% inhibition at 10 µM
[5] = DRUGMATRIX: beta-Lactamase enzyme inhibition (substrate: Nitrocefin); design: species or system Bacillus cereus; settings: Not Active = under 50% inhibition at 10 µM
[6] = target: Platelet-activating factor receptor (Homo sapiens, UniProt P25105); experiment: biochemical; format: tissue-based; settings: platelet; note: in other assays of this panel Not Active means under 50% inhibition at 10 µM
Chain of Platelet-activating factor receptor (P25105 whole entry): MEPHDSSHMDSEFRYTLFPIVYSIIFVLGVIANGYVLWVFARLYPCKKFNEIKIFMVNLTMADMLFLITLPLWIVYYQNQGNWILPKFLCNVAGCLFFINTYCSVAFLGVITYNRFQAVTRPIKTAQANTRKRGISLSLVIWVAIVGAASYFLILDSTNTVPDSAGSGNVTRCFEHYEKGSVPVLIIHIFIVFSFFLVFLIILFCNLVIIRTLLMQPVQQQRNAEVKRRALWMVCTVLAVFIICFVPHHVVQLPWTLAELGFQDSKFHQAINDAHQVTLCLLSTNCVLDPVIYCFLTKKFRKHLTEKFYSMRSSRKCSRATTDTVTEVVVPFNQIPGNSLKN

Leukotriene C4 synthase = target: T4, Leukotriene C4 synthase (Cavia porcellus, UniProt A6XA80); experiment: biochemical; format: tissue-based, Lung
T4 sequence (A6XA80 whole entry): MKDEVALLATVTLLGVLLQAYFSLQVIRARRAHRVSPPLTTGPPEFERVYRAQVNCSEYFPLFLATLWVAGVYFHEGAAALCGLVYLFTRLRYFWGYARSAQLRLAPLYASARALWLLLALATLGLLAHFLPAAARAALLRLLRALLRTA

Compound	IC50 (Carbonic anhydrase 2)	IC50 [1]	IC50 (Cathepsin G)	IC50 [2]	IC50 (Cannabinoid receptor 1)	IC50 (Melanocortin receptor 5)	IC50 [3]	Ki [3]	IC50 (B2 bradykinin receptor)	IC50 [4]	Ki [4]	IC50 [5]	Ki [5]	IC50 [6]	IC50 (Leukotriene C4 synthase)	pIC50 (Leukotriene C4 synthase; read-out: IC50)	pIC50 ([2]; read-out: IC50)	pKi ([2]; read-out: Ki)
Oc1cccc2cccnc12 [OXYQUINOLINE]	Not Active	Not Active	Not Active	Not Active	Not Active	Not Active	Not Active	Not Active	Not Active	Not Active	Not Active	Not Active	Not Active	Not Active	Not Active			
COc1ccc2cc(CC(=O)O)ccc2c1	Not Active	Not Active	Not Active	Not Active	Not Active	Not Active	Not Active	Not Active	Not Active	Not Active	Not Active	Not Active	Not Active	Not Active		4.30		
O=C1CN=C(c2ccccc2)c2cc([N+](=O)[O-])ccc2N1 [NITRAZEPAM]	Not Active	Not Active	Not Active	Not Active	Not Active	Not Active	Not Active	Not Active	Not Active	Not Active	Not Active	Not Active	Not Active	Not Active	Not Active			
CC1=Nc2ccc(Cl)cc2S(=O)(=O)N1 [DIAZOXIDE]	Not Active	Not Active	Not Active	Not Active	Not Active	Not Active	Not Active	Not Active	Not Active	Not Active	Not Active	Not Active	Not Active	Not Active	Not Active			
CCCCCCCCCc1ccc(O)cc1 [4-NONYLPHENOL]	Not Active	Not Active	Not Active		Not Active	Not Active	Not Active	Not Active	Not Active	Not Active	Not Active	Not Active	Not Active	Not Active	Not Active		5.78	5.88
CC1COc2c(N3CCN(C)CC3)c(F)cc3c(=O)c(C(=O)O)cn1c23 (stereo unspecified) [OFLOXACIN]	Not Active	Not Active	Not Active	Not Active	Not Active	Not Active	Not Active	Not Active	Not Active	Not Active	Not Active	Not Active	Not Active	Not Active	Not Active			
CC(C)(S)[C@@H](N)C(=O)O [PENICILLAMINE]	Not Active	Not Active	Not Active	Not Active	Not Active	Not Active	Not Active	Not Active	Not Active	Not Active	Not Active	Not Active	Not Active	Not Active	Not Active			
CC(=O)CCCCn1c(=O)c2c(ncn2C)n(C)c1=O [PENTOXIFYLLINE]	Not Active	Not Active	Not Active	Not Active	Not Active	Not Active	Not Active	Not Active	Not Active	Not Active	Not Active	Not Active	Not Active	Not Active	Not Active			
Nc1nc(=O)[nH]cc1F [FLUCYTOSINE]	Not Active	Not Active	Not Active	Not Active	Not Active	Not Active	Not Active	Not Active	Not Active	Not Active	Not Active	Not Active	Not Active	Not Active	Not Active			
CCC1(c2ccccc2)C(=O)NCNC1=O [PRIMIDONE]	Not Active	Not Active	Not Active	Not Active	Not Active	Not Active	Not Active	Not Active	Not Active	Not Active	Not Active	Not Active	Not Active	Not Active	Not Active			
CCCCOC(=O)c1ccc(N)cc1 [BUTAMBEN]	Not Active	Not Active	Not Active	Not Active	Not Active	Not Active	Not Active	Not Active	Not Active	Not Active	Not Active	Not Active	Not Active	Not Active	Not Active			
